Source: US20060069132A1, “Azolecarboxamide herbicides” (priority 2004, published 2006)

Assays:
[1] = tested on: lambsquarters; test: Test B pre-/postemergence herbicide test; assay type: in vivo, Chenopodium album; conditions: for Lambsquarters plant response rating (0 to 100 scale) / Plant response rating, Lambsquarters: preemergence; for Lambsquarters plant response rating: postemergence
Outline: (§1)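 Plants compared with untreated controls 13–15 days post-treatment and given a visual 0–100 injury score. Applications: preemergence to seeds; postemergence at 1- to 4-leaf (2–18 cm); paddy species flooded, 2-leaf stage. Vehicle non-phytotoxic, surfactant included.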

[2] = tested on: giant foxtail; test: Test B pre-/postemergence herbicide test; assay type: in vivo, Setaria faberi; conditions: for Foxtail, Giant plant response rating (0 to 100 scale) / Plant response rating, Foxtail, Giant: preemergence; for Foxtail, Giant plant response rating: postemergence
Outline: as §1

[3] = tested on: small flower umbrella sedge; test: Test B flooded paddy test; assay type: in vivo, Cyperus difformis; conditions: 1000 g ai/ha, scale 0 to 100 (0 no effect, 100 complete control)
Outline: (§2)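 Each value is a visual 0–100 response rating taken against controls 13 to 15 days after treatment in the greenhouse. Plants received formulated chemical postemergence at the 1- to 4-leaf stage or, in flooded paddy, at the 2-leaf stage.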

[4] = tested on: large crabgrass; test: Test B pre-/postemergence herbicide test; assay type: in vivo, Digitaria sanguinalis; conditions: for Crabgrass, Large plant response rating (0 to 100 scale) / Plant response rating, Crabgrass, Large: preemergence; for Crabgrass, Large plant response rating: postemergence
Outline: as §1

[5] = tested on: wheat; test: Test B postemergence herbicide test; assay type: in vivo, Triticum aestivum; parameters: key to Wheat plant response rating: 0 = no effect, 100 = complete control; conditions: postemergence
Outline: (§3)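 Greenhouse test; postemergence application to plants at 1–4 leaves (2–18 cm); paddy species at 2 leaves; evaluated visually vs controls at 13–15 days; scale 0–100 (100 = complete control).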

[6] = tested on: rice; test: Test B pre-/postemergence herbicide test; assay type: in vivo, Oryza sativa; conditions: preemergence; for Rice plant response rating (0 to 100 scale): 125 g ai/ha; for Plant response rating, Rice: 500 g ai/ha
Description: Seeds selected from barnyardgrass (Echinochloa crus-galli (L.) Beauv.), Surinam grass (Urochloa decumbens (Staph) R. D. Webster, previously named Brachiaria decumbens Stapf), cocklebur (Xanthium strumarium L.), corn (Zea mays L.), large crabgrass (Digitaria sanguinalis (L.) Scop.), giant foxtail (Setaria faberi Herim.), lambsquarters (Chenopodium album L.), morningglory (Ipomoea coccinea L.), pigweed (Amaranthus retroflexus L.), rice (Oryza sativa L.) and velvetleaf (Abutilon theophrasti Medik.) were planted and treated preemergence with test chemicals formulated in a non-phytotoxic solvent mixture which included a surfactant.
At the same time, plants selected from these crop and weed species and also blackgrass (Alopecurus myosuroides Huds.), wheat (Triticum aestivum L.) and wild oat (Avena fatua L.) were treated with postemergence applications of test chemicals formulated in the same manner. Plants ranged in height from 2 to 18 cm (1- to 4-leaf stage) for postemergence treatments. Plant species in the flooded paddy test consisted of rice (Oryza sativa L.), small flower umbrella sedge (Cyperus difformis L.), ducksalad (Heteranthera limosa (Sw.) Willd.) and barnyardgrass (Echinochloa crus-galli (L.) Beauv.) grown to the 2-leaf stage for testing. Treated plants and controls were maintained in a greenhouse for 13 to 15 days, after which time all species were compared to controls and visually evaluated. Plant response ratings, summarized in Table B, are based on a scale of 0 to 100 where 0 is no effect and 100 is complete control. A dash (-) response means no test result.

[7] = tested on: ducksalad; test: Test B flooded paddy test; assay type: in vivo, Heteranthera limosa; conditions: 1000 g ai/ha, scale 0 to 100 (0 no effect, 100 complete control)
Outline: as §2

[8] = tested on: rice; test: Test B flooded paddy test; assay type: in vivo, Oryza sativa; conditions: 1000 g ai/ha, scale 0 to 100 (0 no effect, 100 complete control)
Outline: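 Formulated test chemicals went onto postemergence plants measuring 2 to 18 cm, at one to four leaves. For the paddy assay, species had reached two leaves. Scoring took place 13–15 days later by eye, relative to untreated plants, using 0 for no effect up to 100 for full control.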

[9] = tested on: cocklebur; test: Test B pre-/postemergence herbicide test; assay type: in vivo, Xanthium strumarium; conditions: for Cocklebur plant response rating (0 to 100 scale): 0 = no effect, 100 = complete control; for Cocklebur plant response rating: postemergence, visual rating, scale 0 (no effect) to 100 (complete control)
Outline: (§4)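 Evaluation is visual, comparing treated with control plants on a scale where 0 means no effect and 100 means full control. Treatments were preemergence, or postemergence on seedlings 2–18 cm tall, and held 13–15 days in the greenhouse.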

[10] = tested on: pigweed; test: Test B pre-/postemergence herbicide test; assay type: in vivo, Amaranthus retroflexus; conditions: for Pigweed plant response rating (0 to 100 scale) / Plant response rating, Pigweed: preemergence; for Pigweed plant response rating: postemergence
Outline: as §1

[11] = tested on: Surinam grass; test: Test B pre-/postemergence herbicide test; assay type: in vivo, Urochloa decumbens; conditions: for Surinam Grass plant response rating (0 to 100 scale) / Plant response rating, Surinam Grass: preemergence; for Surinam Grass plant response rating: postemergence
Outline: as §1

[12] = tested on: barnyardgrass; test: Test B pre-/postemergence herbicide test; assay type: in vivo, Echinochloa crus-galli; conditions: for Barnyardgrass plant response rating (0 to 100 scale) / Plant response rating, Barnyardgrass: preemergence; for Barnyardgrass plant response rating: postemergence, scale 0 (no effect) to 100 (complete control)
Outline: as §4

[13] = tested on: corn; test: Test B pre-/postemergence herbicide test; assay type: in vivo, Zea mays; conditions: for Corn plant response rating (0 to 100 scale) / Plant response rating, Corn: preemergence; for Corn plant response rating: postemergence
Outline: as §1

[14] = tested on: blackgrass; test: Test B postemergence herbicide test; assay type: in vivo, Alopecurus myosuroides; conditions: postemergence, visual rating, scale 0 (no effect) to 100 (complete control)
Outline: as §2

[15] = tested on: barnyardgrass; test: Test B flooded paddy test; assay type: in vivo, Echinochloa crus-galli; conditions: 1000 g ai/ha, scale 0 to 100 (0 no effect, 100 complete control)
Outline: as §2

[16] = tested on: wild oat; test: Test B postemergence herbicide test; assay type: in vivo, Avena fatua; conditions: postemergence
Outline: as §3

[17] = tested on: morningglory; test: Test B pre-/postemergence herbicide test; assay type: in vivo, Ipomoea coccinea; conditions: for Morningglory plant response rating (0 to 100 scale) / Plant response rating, Morningglory: preemergence; for Morningglory plant response rating: postemergence
Outline: as §4

[18] = tested on: velvetleaf; test: Test B pre-/postemergence herbicide test; assay type: in vivo, Abutilon theophrasti; conditions: for Velvetleaf plant response rating (0 to 100 scale) / Plant response rating, Velvetleaf: preemergence; for Velvetleaf plant response rating: postemergence
Outline: as §1

[19] = 125 g ai/ha, 0 = no effect, 100 = complete control
[20] = 500 g ai/ha, visual rating 0-100, 0 no effect, 100 complete control
[21] = 125 g ai/ha, visual rating, scale 0 (no effect) to 100 (complete control)
[22] = 500 g ai/ha, visual rating, scale 0 (no effect) to 100 (complete control)
[23] = 0 = no effect, 100 = complete control
[24] = 500 g ai/ha, visual rating, 0 = no effect, 100 = complete control
[25] = 500 g ai/ha, scale 0 to 100, 0 is no effect, 100 is complete control

CCNC(=O)c1cccc(NC(=O)c2nn(C(C)(C)C)cc2C(F)(F)F)c1 [Compound 170]
Lambsquarters plant response rating (0 to 100 scale) [1, 19]: 0 | Plant response rating, Lambsquarters [1, 20]: 80 | Lambsquarters plant response rating [1, 21]: 60 | Lambsquarters plant response rating [1, 22]: 70 | Foxtail, Giant plant response rating (0 to 100 scale) [2, 19]: 0 | Plant response rating, Foxtail, Giant [2, 20]: 20 | Foxtail, Giant plant response rating [2, 21]: 0 | Foxtail, Giant plant response rating [2, 22]: 10 | Sedge, Umbrella plant response rating ([3]; visual rating, 13 to 15 days): 20 | Crabgrass, Large plant response rating (0 to 100 scale) [4, 19]: 20 | Plant response rating, Crabgrass, Large [4, 20]: 80 | Crabgrass, Large plant response rating [4, 21]: 10 | Crabgrass, Large plant response rating [4, 22]: 10 | Wheat plant response rating [5, 21]: 0 | Wheat plant response rating [5, 22]: 0 | Rice plant response rating (0 to 100 scale) [6, 23]: 0 | Plant response rating, Rice ([6]; visual rating 0-100, 0 no effect, 100 complete control): 0 | Ducksalad plant response rating ([7]; visual rating, 13 to 15 days): 0 | Rice plant response rating ([8]; visual rating, 13 to 15 days): 20 | Cocklebur plant response rating (0 to 100 scale) ([9]; 125 g ai/ha, preemergence): 0 | Plant response rating, Cocklebur ([9]; 500 g ai/ha, visual rating 0-100, 0 no effect, 100 complete control, preemergence): 0 | Cocklebur plant response rating ([9]; 125 g ai/ha): 0 | Cocklebur plant response rating ([9]; 500 g ai/ha): 0 | Pigweed plant response rating (0 to 100 scale) [10, 19]: 0 | Plant response rating, Pigweed [10, 20]: 90 | Pigweed plant response rating [10, 21]: 30 | Pigweed plant response rating [10, 22]: 50 | Surinam Grass plant response rating (0 to 100 scale) [11, 19]: 0 | Plant response rating, Surinam Grass [11, 20]: 30 | Surinam Grass plant response rating [11, 21]: 10 | Surinam Grass plant response rating [11, 22]: 10 | Barnyardgrass plant response rating (0 to 100 scale) [12, 19]: 0 | Plant response rating, Barnyardgrass [12, 20]: 30 | Barnyardgrass plant response rating ([12]; 125 g ai/ha, visual rating): 0 | Barnyardgrass plant response rating ([12]; 500 g ai/ha, visual rating): 10 | Corn plant response rating (0 to 100 scale) [13, 19]: 0 | Plant response rating, Corn [13, 20]: 0 | Corn plant response rating [13, 21]: 0 | Corn plant response rating [13, 22]: 10 | Blackgrass plant response rating ([14]; 125 g ai/ha): 0 | Blackgrass plant response rating ([14]; 500 g ai/ha): 0 | Barnyardgrass plant response rating ([15]; visual rating, 13 to 15 days): 10 | Oat, Wild plant response rating [16, 21]: 10 | Oat, Wild plant response rating [16, 22]: 10 | Morningglory plant response rating (0 to 100 scale) [17, 19]: 0 | Plant response rating, Morningglory [17, 20]: 10 | Morningglory plant response rating [17, 21]: 30 | Morningglory plant response rating [17, 22]: 80 | Velvetleaf plant response rating (0 to 100 scale) [18, 19]: 0 | Plant response rating, Velvetleaf [18, 20]: 20 | Velvetleaf plant response rating [18, 21]: 10 | Velvetleaf plant response rating [18, 22]: 20

C=CCN(CC=C)C(=O)c1cncc(NC(=O)c2cc(C(C)(C)C)nn2CC)c1 [Compound 262]
Lambsquarters plant response rating (0 to 100 scale) [1, 19]: 40 | Plant response rating, Lambsquarters [1, 24]: 90 | Lambsquarters plant response rating [1, 21]: 50 | Lambsquarters plant response rating [1, 25]: 80 | Foxtail, Giant plant response rating (0 to 100 scale) [2, 19]: 0 | Plant response rating, Foxtail, Giant [2, 24]: 0 | Foxtail, Giant plant response rating [2, 21]: 10 | Foxtail, Giant plant response rating [2, 25]: 20 | Sedge, Umbrella plant response rating [3]: 0 | Crabgrass, Large plant response rating (0 to 100 scale) [4, 19]: 0 | Plant response rating, Crabgrass, Large [4, 24]: 30 | Crabgrass, Large plant response rating [4, 21]: 0 | Crabgrass, Large plant response rating [4, 25]: 20 | Wheat plant response rating [5, 21]: 0 | Wheat plant response rating [5, 25]: 10 | Rice plant response rating (0 to 100 scale) [6, 23]: 0 | Plant response rating, Rice ([6]; visual rating, 0 = no effect, 100 = complete control): 0 | Ducksalad plant response rating [7]: 0 | Rice plant response rating [8]: 0 | Cocklebur plant response rating (0 to 100 scale) ([9]; 125 g ai/ha, preemergence): 0 | Cocklebur plant response rating ([9]; 125 g ai/ha): 0 | Cocklebur plant response rating ([9]; 500 g ai/ha): 10 | Pigweed plant response rating (0 to 100 scale) [10, 19]: 50 | Plant response rating, Pigweed [10, 24]: 100 | Pigweed plant response rating [10, 21]: 70 | Pigweed plant response rating [10, 25]: 80 | Surinam Grass plant response rating (0 to 100 scale) [11, 19]: 0 | Plant response rating, Surinam Grass [11, 24]: 10 | Surinam Grass plant response rating [11, 21]: 0 | Surinam Grass plant response rating [11, 25]: 20 | Barnyardgrass plant response rating (0 to 100 scale) [12, 19]: 0 | Plant response rating, Barnyardgrass [12, 24]: 10 | Barnyardgrass plant response rating ([12]; 125 g ai/ha, visual rating): 0 | Barnyardgrass plant response rating ([12]; 500 g ai/ha, visual rating): 10 | Corn plant response rating (0 to 100 scale) [13, 19]: 0 | Plant response rating, Corn [13, 24]: 0 | Corn plant response rating [13, 21]: 0 | Corn plant response rating [13, 25]: 20 | Blackgrass plant response rating ([14]; 125 g ai/ha): 0 | Blackgrass plant response rating ([14]; 500 g ai/ha): 20 | Barnyardgrass plant response rating [15]: 0 | Oat, Wild plant response rating [16, 21]: 0 | Oat, Wild plant response rating [16, 25]: 0 | Morningglory plant response rating (0 to 100 scale) [17, 19]: 0 | Plant response rating, Morningglory [17, 24]: 0 | Morningglory plant response rating [17, 21]: 0 | Morningglory plant response rating [17, 25]: 0 | Velvetleaf plant response rating (0 to 100 scale) [18, 19]: 0 | Plant response rating, Velvetleaf [18, 24]: 80 | Velvetleaf plant response rating [18, 21]: 20 | Velvetleaf plant response rating [18, 25]: 20
